Assays:
CYP2A6 = biological target: T1, CYP2A6 (Homo sapiens, UniProt P11509); experiment: Direct CYP inhibition assay, pooled human liver microsomes, LC-MS/MS; format: in vitro ADME; details: pooled HLMs, up to 50 μM, coumarin substrate
T1 construct: from tissue; host or cells: pooled human liver microsomes
T1 sequence (P11509 1-494): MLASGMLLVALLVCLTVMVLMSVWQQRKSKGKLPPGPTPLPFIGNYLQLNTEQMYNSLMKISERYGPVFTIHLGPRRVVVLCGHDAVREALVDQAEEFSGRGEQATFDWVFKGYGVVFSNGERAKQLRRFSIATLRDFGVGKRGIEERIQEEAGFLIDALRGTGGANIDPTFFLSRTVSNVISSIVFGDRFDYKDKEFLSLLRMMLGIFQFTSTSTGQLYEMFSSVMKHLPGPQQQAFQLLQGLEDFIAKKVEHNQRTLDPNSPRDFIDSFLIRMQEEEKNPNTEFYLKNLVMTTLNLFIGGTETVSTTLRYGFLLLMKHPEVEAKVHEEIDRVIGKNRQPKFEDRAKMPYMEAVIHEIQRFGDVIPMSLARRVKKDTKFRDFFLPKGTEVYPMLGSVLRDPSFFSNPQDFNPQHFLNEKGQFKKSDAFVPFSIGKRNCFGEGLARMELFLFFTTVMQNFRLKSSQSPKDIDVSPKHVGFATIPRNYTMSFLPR
Protocol: (§1) Reactions were incubated in eight-well strips placed in an 8 × 12 racks (1.2 ml; VWR, Emeryville, CA). The incubation mixtures (final volume, 200 μL) contained 0.2 mg/mL HLMs, 0.1 M phosphate buffer (pH 7.4), 1 mM NADPH, and various CYP isoform-specific substrate cocktail sets (A set: phenacetin, coumarin, amodiaquine, S-mephenytoin, dextromethorphan, and midazolam; B set: bupropion, tolbutamide, chlorzoxazone, and testosterone). […] Substrates were dissolved and serially diluted with acetonitrile to the required concentration in all experiments. […] The reactions were incubated at 37 °C in a shaking water bath. The reactions were terminated by placing the incubation tubes on ice, adding 200 μL of cold acetonitrile containing carbamazepine (100 nM) and 4-methylumbelliferone (500 nM) as an internal standard after 10 min, and agitating with a vortex mixer before centrifugation. The samples for each enzyme assay were centrifuged at 3,000 × g for 20 min at 4 °C, and supernatants of the individual reaction samples and pooled cocktail incubation samples (A set: B set, 1:1) were analysed using LC-MS/MS.
(§2) Sample injection volume was 10 μL, and separation was performed on an Atlantis™ dC18 column (2.1 × 50 mm i.d., 3 μm; Waters, Milford, MA, USA) and Luna™5u C18 column (2.0 × 30 mm i.d.; Phenomenex, Torrance, CA, USA) with a SecurityGuard™ C18 guard column (2.0 × 4.0 mm i.d.; Phenomenex, Torrance, CA, USA) maintained at 30 °C. The column was pre-equilibrated in 100% v/v solvent A (deionized water containing 0.1% v/v formic acid)/0% v/v solvent B (acetonitrile containing 0.1% v/v formic acid) at a flow rate of 0.4 ml/min. […] Quadrupoles Q1 and Q3 were set on unit resolution. The samples were analysed via multiple reaction monitoring (MRM) and enhanced product ion (EPI) scan mode. The turbo ion spray interface was operated in the positive ion mode at 5,500 V. The operating conditions were determined as follows: ion source temperature, 600 °C; nebulising gas flow, 50 L/min; auxiliary gas flow, 4.0 L/min; curtain gas flow, 20 L/min; collision gas (nitrogen) pressure 3.6 × 10^−5 Torr. Nitrogen gas was used for CUR, CAD, and NEB. The MRM transitions, collision energies and retention time were determined for each metabolite. The samples were analysed via MRM as described in our previous study. The scan dwell time was set at 0.08 s for every channel. Data acquisition and analysis was performed using the Analyst™ software (version 1.5.2; Applied Biosystems, Foster City, CA, USA).

CYP2C9 = biological target: T2, CYP2C9 (Homo sapiens, UniProt P11712); experiment: as above; format: in vitro ADME; details: pooled HLMs, up to 50 μM, tolbutamide substrate
T2 construct: from tissue; host or cells: pooled human liver microsomes
T2 sequence (P11712 whole entry): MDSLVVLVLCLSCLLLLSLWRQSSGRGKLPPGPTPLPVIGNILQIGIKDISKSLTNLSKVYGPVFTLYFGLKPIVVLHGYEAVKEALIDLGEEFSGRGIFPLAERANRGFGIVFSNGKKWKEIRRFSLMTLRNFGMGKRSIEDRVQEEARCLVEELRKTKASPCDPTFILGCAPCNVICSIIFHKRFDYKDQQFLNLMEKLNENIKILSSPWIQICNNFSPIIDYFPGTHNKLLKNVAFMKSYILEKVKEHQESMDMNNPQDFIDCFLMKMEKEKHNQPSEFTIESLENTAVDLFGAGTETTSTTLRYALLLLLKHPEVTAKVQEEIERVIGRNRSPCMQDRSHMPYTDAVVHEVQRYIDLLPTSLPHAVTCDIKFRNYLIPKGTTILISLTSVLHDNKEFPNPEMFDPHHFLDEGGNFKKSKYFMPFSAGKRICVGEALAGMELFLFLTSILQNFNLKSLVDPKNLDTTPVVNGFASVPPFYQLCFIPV
Protocol: as §1, §2

O=[N+]([O-])c1ccc(CNc2nc(NCc3cccc(C(F)(F)F)c3)nc3[nH]cnc23)cc1 [TNP, N^6-[(4-nitrophenyl)methyl]-N^2-[[3-(trifluoromethyl)phenyl]methyl]-9H-purine-2,6-diamine]
inhibitory effect on CYP2A6 (CYP2A6): no inhibitory effect
inhibitory effect on CYP2C9 (CYP2C9): no inhibitory effect
